# Literature values in patent publication US20110251396A1, “Enantiomeric compositions of cicletanine, alone and in combination with other agents, for the treatment of disease” (Gilead Sciences, Inc., priority 2003, published 2011).
# Where two headings read alike, the source gives them in different places.
# Key:
# [1] = tested on: patients with type 2 diabetes
# Dahl salt-sensitive rats = details: cicletanine treatment
# hypertensives = details: fell from 128; 150-200 mg/day cicletanine, over 12 months
# [2] = tested on: patients whose blood pressure had not been normalized; details: cicletanine 50 and 100 mg per day added; all three groups
# [3] = tested on: T-type voltage-gated plasma membrane calcium channels
smiles,measurement,setting,value
CN(C)C(=N)N=C(N)N [Metformin],patients with gastrointestinal side effects,"[1]; diarrhea, nausea, abdominal pain, metallic taste",20% to 30%
same,weight loss,[1]; first 6 months of treatment,2 to 3 kg
same,decrease of low-density lipoprotein (LDL) cholesterol levels,[1]; monotherapy,10% to 15%
same,decrease of plasma triglyceride levels,[1]; monotherapy,10% to 15%
CCCCNC(=O)NS(=O)(=O)c1ccc(C)cc1 [tolbutamide],peak insulin response to tolbutamide,"single intravenous dose of tolbutamide alone, before cicletanine administration",29.2 mU/L
Cc1ncc2c(c1O)COC2c1ccc(Cl)cc1 (racemic) [cicletanine],high-density lipoprotein (HDL) cholesterol,Dahl salt-sensitive rats,increased
same,low-density lipoprotein (LDL) cholesterol,Dahl salt-sensitive rats,significantly decreased
same,average triglyceride levels,hypertensives,104 mg/dL
same,patients with normalized blood pressure,[2],50%
same,hypoglycemic effect of tolbutamide,following 7 days of cicletanine 100 mg per day,did not change
same,peak insulin response to tolbutamide,single intravenous dose of tolbutamide following 7 days of cicletanine 100 mg per day,17.4 mU/L
COCC(=O)O[C@]1(CCN(C)CCCc2nc3ccccc3[nH]2)CCc2cc(F)ccc2[C@@H]1C(C)C [mibefradil],selectivity for blocking T-type over L-type calcium channels,[3],10 to 50 times
